This note sets out measurements from patent publication US9345677B2, “Compositions, methods and kits relating to HER-2 cleavage” (Incyte Corporation, priority 2003, dated 2016).

SMILES strings stand for the structures.

In one assay the test system is Her-2 sheddase. In words: Her-2 ECD ELISA of BT474 culture supernatants (Her-2 sheddase inhibition). It is filed as cell-based, human. The protocol:
BT474 cells were seeded in 100 μL of RPMI medium containing 10% FCS+10 μg/ml insulin in 96 well plates at 2×10^4 cells/well. The cells were incubated overnight at 37° C. The following morning, the media was removed and 100 μL of fresh media with or without compound was added back. The cells were incubated for about 72 hours at 37° C. After about 72 hours, the supernatants were removed. The samples were diluted 1:10 and analyzed using a commercially available Her-2 ELISA kit per manufacturer's instructions (Oncogene Research, catalog #QIA 10).
These inhibitors were added, at varying concentrations, to cultures of BT474 cells, a Her-2 overexpressing breast cancer cell line known to enzymatically process cell surface Her-2 (p185) and release the extracellular domain (ECD) into the culture supernatant, i.e., shedding of ECD. After 72 hours, cell culture supernatants were harvested and assayed for Her-2 ECD content using an ELISA assay.

The next assay addresses T1, MMP2 (Homo sapiens, UniProt P08253).
T1 construct: purchased R&D Systems 902-MP
T1 sequence (P08253 110-660): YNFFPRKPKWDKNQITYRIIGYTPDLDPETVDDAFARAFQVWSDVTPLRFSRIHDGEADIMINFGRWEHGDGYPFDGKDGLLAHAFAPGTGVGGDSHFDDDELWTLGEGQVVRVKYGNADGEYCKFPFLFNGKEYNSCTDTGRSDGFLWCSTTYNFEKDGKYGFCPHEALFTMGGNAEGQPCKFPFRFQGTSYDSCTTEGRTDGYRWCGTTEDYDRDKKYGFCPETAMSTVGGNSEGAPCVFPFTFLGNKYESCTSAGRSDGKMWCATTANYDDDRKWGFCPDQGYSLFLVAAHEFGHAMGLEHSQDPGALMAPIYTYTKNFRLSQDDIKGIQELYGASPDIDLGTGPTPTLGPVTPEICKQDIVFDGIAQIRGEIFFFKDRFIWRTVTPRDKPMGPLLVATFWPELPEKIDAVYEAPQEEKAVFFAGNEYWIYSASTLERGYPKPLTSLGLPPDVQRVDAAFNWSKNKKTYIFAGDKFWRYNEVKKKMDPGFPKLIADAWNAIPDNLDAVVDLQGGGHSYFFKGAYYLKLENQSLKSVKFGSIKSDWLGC
Briefly: MMP2 fluorogenic peptide biochemical assay.

Another assay addresses T2, MMP3 (Homo sapiens, UniProt P08254).
T2 construct: purchased R&D Systems 513-MP
Briefly: MMP3 fluorogenic peptide biochemical assay. From the text:
Source of enzymes for biochemical assays: Except for ADAM17 and MT1-MMP, all recombinant human MMPs and ADAMs were obtained from R&D Systems (Minneapolis, Minn.). […] MT1-MMP was obtained from US Biological (Swampscott, Mass.) with a catalog number of M2429. Porcine ADAM17 was purified in house from porcine spleen.
Substrates for biochemical assays: Fluorogenic Peptide substrate, (7-methoxycoumarin-4-yl)acetyl-Pro-Leu-Gly-Leu-(3-[2,4-dinitrophenyl]-L-2,3-diaminopropionyl)-Ala-Arg-NH2 (SEQ ID NO: 46), was obtained from R&D Systems (Minneapolis, Minn.) with a catalog number of ES001. It was used as substrate for MMP1, MMP2, MMP7, MMP8, MMP9, MMP12, MMP13, and MT1-MMP. Fluorogenic Peptide substrate, (7-methoxycoumarin-4-yl)acetyl-Arg-Pro-Lys-Pro-Val-Glu-Nva-Trp-Arg-Lys(2,4-dinitrophenyl)-NH2 (SEQ ID NO: 47), was obtained from R&D Systems with a catalog number of ES002. It was used as substrate for MMP3 and MMP10. […]
In general, 5 mM compound stock was prepared in DMSO. […] The plate was read on a plate reader with excitation of 320 nm and emission of 405 nm. Percentage of inhibition was calculated for each concentration and IC50 value was generated from curve fitting. […]

T2 sequence (P08254 100-477): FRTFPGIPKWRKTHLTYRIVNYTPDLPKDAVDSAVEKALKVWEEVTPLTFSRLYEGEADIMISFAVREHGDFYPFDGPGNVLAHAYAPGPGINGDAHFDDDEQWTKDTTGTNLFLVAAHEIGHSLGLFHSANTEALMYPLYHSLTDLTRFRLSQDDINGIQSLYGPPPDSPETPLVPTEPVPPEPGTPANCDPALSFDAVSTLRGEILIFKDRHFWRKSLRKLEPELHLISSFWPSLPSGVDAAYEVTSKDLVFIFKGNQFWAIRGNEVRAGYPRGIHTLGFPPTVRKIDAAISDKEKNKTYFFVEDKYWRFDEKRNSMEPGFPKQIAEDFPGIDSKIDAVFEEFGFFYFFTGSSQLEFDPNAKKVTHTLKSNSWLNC
Protocol for MMP2: Biochemical Assays: In general, assay buffer conditions were chosen based on obtaining optimal enzymatic activities. The specific assay buffer conditions are summarized as following. For MMP1, MMP2, MMP3, MMP7, and MMP12, the assay buffer contains 50 mM Tricine, 10 mM NaCl, 10 mM CaCl2, 1.0 mM ZnCl2, pH 7.4.
To activate MMP enzymes, 10 or 20 μg of lyophilized Pro-MMPs are dissolved in 100 μL of water. 100 mM p-aminophenylmercuric acetate (APMA) stock in DMSO is added to Pro-MMPs to give 1.0 mM final concentration. Incubate enzyme with APMA at 37° C. for a period time specified below.

For orientation: IC50 means the concentration needed to halve the response being measured. Higher therefore signals lower potency. As for `Cc1cc([N+](=O)[O-])ccc1N1CCN(C(=O)[C@@H]2[C@@H](C(=O)NO)CC3(CC3)CN2C)CC1` [Compound 5, (6S,7S)-N-hydroxy-5-methyl-6-{[4-(2-methyl-4-nitrophenyl)piperazin-1-yl]-carbonyl}-5-azaspiro[2.5]octane-7-carboxamide], the IC50 in the assay on Her-2 sheddase lay in the range of 198 to 250 nM. Further, the MMP2 activity entry at MMP2 is “inactive”. Also, the MMP3 activity result at MMP3 was “inactive”.
